Experimental data reported in US12138256B2, “Treatment of cardiopulmonary disorders” (Bayer Aktiengesellschaft, priority 2021, dated 2024).
Where “and” joins values, the source holds several entries; their conditions need not be identical. Equal values may be shown once.

Key:
[1] = tested on: hypoxia induced PAP increase in conscious dogs; test: Haemodynamics in conscious hypoxia challenged dogs (C-2.2); type: in vivo, dog; set-up: PAP, absolute values for each animal: unit: mmHg; settings: for mPAP decrease during Hypoxia, each animal / mPAP decrease during Hypoxia, mean +/− SEM: n = 3
Procedure: Experiments were carried out in anesthetized Göttingen minipigs, anesthetized rats and conscious, telemetrically instrumented dogs. Acute pulmonary hypertension was induced for example by infusion of a thromboxane A2 analogon, by acute hypoxia treatment or hypoxia treatment over a number of weeks and/or by administration of monocrotaline. Test substances were applied via nebulization using the Nebutec® or Aeroneb® Pro nebulizer system, and/or by means of powder and/or solution applicators for experimental intratracheal administration (Liquid MicroSprayer®, Dry Powder Insufflator™, MicroSprayer®, Penn-Century Inc., Wyndmoor, PA, USA) or after solid nebulization inserted into the inspiration arm of the ventilation. Compounds were employed as solids or solutions depending on the molecular structure and the technical possibility depending on the experiment. The haemodynamic signals were recorded and evaluated by means of pressure transducers/amplifiers (Combitransducer B. Braun, Melsungen, Germany or CardioMEMS Inc., Atlanta, GA, USA) and Ponemah® or CardioMems® as data aquisition software. After long-term experiments (for example monocrotaline rat), it is also possible to carry out a histological evaluation.
We evaluated the lung-selectivity and duration of effects of comparative example 11 under conscious conditions, in another species, and under a more physiological stimulus for PAP increase. Dogs were exposed to hypoxia for 30 minutes to induce a hypoxia-mediated PAP increase and comparative example 11 (100 μg/kg nominal dose) was applied by inhalation 1, 5, 12, 16 and 24 hours before hypoxia.
The hypoxic dog model was also used to compare different drug candidates wrt duration of action under conscious conditions.

[2] = Protein binding via Transil assay, dog plasma; type: in vitro ADME; settings: Dog Beagle plasma, Transil assay
Source text: The distribution of a test substance between Transil® (phosphatidylcholine lipid bilayers immobilized on silica beads) and plasma is a characteristic feature of any pharmaceutical compound and is dependent on its extent of binding to plasma proteins. By comparing the distribution between Transil® and buffer with the distribution between Transil® and plasma of any species of interest, the unbound fraction in the plasma of the respective animal species can be calculated in vitro. The respective plasma and buffer concentrations were determined via a radioactivity analysis. A detailed description of the method and its validation was published by Schuhmacher et al. (2).

[3] = Storage stability of pseudopolymorphic forms (XRPD after storage); type: physicochemical; settings: 25° C./60% and 40° C./75% relative humidity
[4] = Phase I, healthy male subjects, 7 days inhalation: plasma concentrations over time (C-4.1); type: in vivo, human; settings: all doses administered
Procedure: Healthy White male subjects, aged 18 to 45 years and with a body mass index (BMI) above/equal 18.5 and below/equal 29.9 kg/m2 were treated in a clinical pharmacological phase I study on seven days with inhaled once daily doses of 480 μg or 1000 μg or 2000 μg (2 capsules of 1000 μg) (nominal dose) of dry powder formulations of example 2 or Placebo. The subjects inhaled the drug powder from capsules (see under D-1, e.g. tables 22 and 23) inserted into a handheld inhalation device by one deep inhalative breath. The dry powder formulation of the drug is dispersed into the airstream and fine particles are transported into the deep parts of the lung where it is intended to cause a vasodilation of the blood vessels in PH patients for a substantial reduction of increased blood pressure in the central pulmonary blood vessels in PAH patients or other subtypes of PH. This effect cannot be shown in subjects with healthy lungs. In addition inhaled drug causes a dilation of the bronchial airways and thus also improves disease states of lung diseases in PH patients with pathological bronchoconstriction. This effect was measured via bodyplethysmography as reduction of Specific Airway Resistance in healthy subjects. […]

[5] = 100 μg/kg nominal dose inhaled, 1-2 h post inhalation
[6] = 100 μg/kg nominal dose inhaled, 5-6 h post inhalation
[7] = 100 μg/kg nominal dose inhaled, 12-13 h post inhalation
[8] = 100 μg/kg nominal dose inhaled, 16-17 h post inhalation
[9] = 100 μg/kg nominal dose inhaled, 24-25 h post inhalation

Structure (SMILES): O=C(O)c1ccc(CCN(CCc2cc(F)ccc2OCc2ccc(-c3nc4cc(Cl)ccc4o3)cc2)C2CCCc3nc(C(=O)O)ccc32)cc1 (single isomer, unassigned) [comparative example 4, 5-{[2-(4-Carboxyphenyl)ethyl][2-(2-{[4-(5-chloro-1,3-benzoxazol-2-yl)benzyl]oxy}-5-fluorophenyl)-ethyl]amino}-5,6,7,8-tetrahydroquinoline-2-carboxylic acid]
- PAP, absolute values for each animal ([1]; 100 μg/kg nominal dose inhaled 1 h before hypoxia, time 4 min): 9 and 15 and 10
- PAP, absolute values for each animal ([1]; 100 μg/kg nominal dose inhaled 1 h before hypoxia, time 6 min): 9 and 14 and 11
- PAP, absolute values for each animal ([1]; 100 μg/kg nominal dose inhaled 1 h before hypoxia, time 8 min): 10 and 14 and 11
- PAP, absolute values for each animal ([1]; 100 μg/kg nominal dose inhaled 16 h before hypoxia, time 22 min): 23 and 26 and 13
- PAP, absolute values for each animal ([1]; 100 μg/kg nominal dose inhaled 16 h before hypoxia, time 24 min): 23 and 26 and 14
- PAP, absolute values for each animal ([1]; 100 μg/kg nominal dose inhaled 16 h before hypoxia, time 26 min): 21 and 32 and 15
- PAP, absolute values for each animal ([1]; 100 μg/kg nominal dose inhaled 16 h before hypoxia, time 28 min): 22 and 29 and 17
- PAP, absolute values for each animal ([1]; 100 μg/kg nominal dose inhaled 16 h before hypoxia, time 30 min): 26 and 31 and 18
- PAP, absolute values for each animal ([1]; 100 μg/kg nominal dose inhaled 16 h before hypoxia, time 32 min): 24 and 29 and 16
- PAP, absolute values for each animal ([1]; 100 μg/kg nominal dose inhaled 16 h before hypoxia, time 34 min): 23 and 32 and 21
- PAP, absolute values for each animal ([1]; 100 μg/kg nominal dose inhaled 16 h before hypoxia, time 36 min): 20 and 29 and 19
- PAP, absolute values for each animal ([1]; 100 μg/kg nominal dose inhaled 16 h before hypoxia, time 38 min): 25 and 29 and 12
- PAP, absolute values for each animal ([1]; 100 μg/kg nominal dose inhaled 16 h before hypoxia, time 40 min): 25 and 30 and 22
- PAP, absolute values for each animal ([1]; 100 μg/kg nominal dose inhaled 16 h before hypoxia, time 42 min): 12 and 21 and 8
- PAP, absolute values for each animal ([1]; 100 μg/kg nominal dose inhaled 16 h before hypoxia, time 44 min): 9 and 17 and 7
- PAP, absolute values for each animal ([1]; 100 μg/kg nominal dose inhaled 16 h before hypoxia, time 46 min): 9 and 16 and 8
- PAP, absolute values for each animal ([1]; 100 μg/kg nominal dose inhaled 16 h before hypoxia, time 48 min): 6 and 16 and 8
- PAP, absolute values for each animal ([1]; 100 μg/kg nominal dose inhaled 16 h before hypoxia, time 50 min): 6 (2×) and 15
- PAP, absolute values for each animal ([1]; 100 μg/kg nominal dose inhaled 24 h before hypoxia, time 0 min): 10 and 16 and 15
- PAP, absolute values for each animal ([1]; 100 μg/kg nominal dose inhaled 24 h before hypoxia, time 2 min): 12 and 16 and 17
- PAP, absolute values for each animal ([1]; 100 μg/kg nominal dose inhaled 24 h before hypoxia, time 4 min): 10 and 15 and 16
- PAP, absolute values for each animal ([1]; 100 μg/kg nominal dose inhaled 24 h before hypoxia, time 6 min): 10 and 13 and 14
- PAP, absolute values for each animal ([1]; 100 μg/kg nominal dose inhaled 24 h before hypoxia, time 8 min): 9 and 14 and 12
- PAP, absolute values for each animal ([1]; 100 μg/kg nominal dose inhaled 24 h before hypoxia, time 10 min): 10 and 15 and 14
- PAP, absolute values for each animal ([1]; 100 μg/kg nominal dose inhaled 24 h before hypoxia, time 12 min): 18 and 22 and 14
- PAP, absolute values for each animal ([1]; 100 μg/kg nominal dose inhaled 24 h before hypoxia, time 14 min): 18 and 19 and 15
- PAP, absolute values for each animal ([1]; 100 μg/kg nominal dose inhaled 24 h before hypoxia, time 16 min): 20 and 23 and 17
- PAP, absolute values for each animal ([1]; 100 μg/kg nominal dose inhaled 24 h before hypoxia, time 18 min): 23 and 25 and 17
- PAP, absolute values for each animal ([1]; 100 μg/kg nominal dose inhaled 24 h before hypoxia, time 20 min): 23 and 24 and 21
- PAP, absolute values for each animal ([1]; 100 μg/kg nominal dose inhaled 24 h before hypoxia, time 22 min): 22 and 26 and 17
- PAP, absolute values for each animal ([1]; 100 μg/kg nominal dose inhaled 24 h before hypoxia, time 24 min): 24 and 25 and 18
- PAP, absolute values for each animal ([1]; 100 μg/kg nominal dose inhaled 24 h before hypoxia, time 26 min): 23 and 25 and 19
- PAP, absolute values for each animal ([1]; 100 μg/kg nominal dose inhaled 24 h before hypoxia, time 28 min): 22 and 27 and 18
- PAP, absolute values for each animal ([1]; 100 μg/kg nominal dose inhaled 24 h before hypoxia, time 30 min): 23
- efficacy (PAP decrease), head to head ([1]; 100 μg/kg nominal dose inhaled, up to 6 hrs after inhalation): comparable efficacy
- mPAP decrease during Hypoxia, each animal [1, 5]: −11.69 mmHg and −10.19 mmHg and −11.38 mmHg
- mPAP decrease during Hypoxia, mean +/− SEM [1, 5]: −11.08 ± 0.46 mmHg
- mPAP decrease during Hypoxia, each animal [1, 6]: −14.81 mmHg and −6.69 mmHg and −8.00 mmHg
- mPAP decrease during Hypoxia, mean +/− SEM [1, 6]: −9.83 ± 2.52 mmHg
- mPAP decrease during Hypoxia, each animal [1, 7]: −0.50 mmHg and −4.63 mmHg and −0.56 mmHg
- mPAP decrease during Hypoxia, mean +/− SEM [1, 7]: −1.90 ± 1.36 mmHg
- mPAP decrease during Hypoxia, each animal [1, 8]: 0.81 mmHg and −0.56 mmHg and −1.06 mmHg
- mPAP decrease during Hypoxia, mean +/− SEM [1, 8]: −0.27 ± 0.56 mmHg
- mPAP decrease during Hypoxia, each animal [1, 9]: −2.56 mmHg and −3.13 mmHg and −2.25 mmHg
- mPAP decrease during Hypoxia, mean +/− SEM [1, 9]: −2.65 ± 0.26 mmHg

Structure (SMILES): O=C(O)CCCCN(CCc1ccccc1OCc1ccc(CCc2ccccc2)cc1)Cc1ccc(C(=O)O)cc1 [comparative example 1, 4-[((4Carboxybutyl)-{2-[(4-phenethylbenzyl)oxy]phenethyl}amino)methyl]benzoic acid]
- fraction unbound [2]: 0.0112

Structure (SMILES): O=C(O)c1ccc(CCN(CCc2ccccc2OCc2ccc(-c3ccc(C(F)(F)F)cc3)cc2Cl)[C@H]2CCCc3nc(C(=O)O)ccc32)cc1 [example 2, (5S)-{[2-(4-Carboxyphenyl)ethyl][2-(2-{[3-chloro-4′-(trifluoromethyl)biphenyl-4-yl]methoxy}phenyl)-ethyl]amino}-5,6,7,8-tetrahydroquinoline-2-carboxylic acid]
- storage stability of the form ([3]; listed as monohydrate II): underwent conversion to monohydrate I
- persistence of measurable plasma concentration after first inhalation [4]: 48 h

Structure (SMILES): O=C(O)c1ccc(CCN(CCc2ccccc2OCc2ccc(-c3ccc(C(F)(F)F)cc3)cc2Cl)[C@H]2CCCc3nc(C(=O)O)ccc32)cc1 [example 4, (5S)-{[2-(4-Carboxyphenyl)ethyl][2-(2-{[3-chloro-4′-(trifluoromethyl)biphenyl-4-yl]methoxy}phenyl)-ethyl]amino}-5,6,7,8-tetrahydroquinoline-2-carboxylic acid]
- storage stability of the form ([3]; listed as monohydrate I): stable
